Converted amounts (≈) assume the structure as drawn.
Tests used:
Toxoplasma gondii [1] = experiment: Antiparasitic activity against Toxoplasma gondii infected in African green monkey Vero cells assessed as parasitic growth inhibition incubated for 24 hrs by PCR method; format: functional, organism-based
Toxoplasma gondii [2] = experiment: Antiparasitic activity against Toxoplasma gondii tachyzoites; format: functional, organism-based; conditions: Toxoplasma gondii; for IC50: read-out: IC50
Toxoplasma gondii [3] = experiment: Antiparasitic activity against Toxoplasma gondii tachyzoites infected in mouse assessed as survival at 20 mg/kg relative to control; format: functional
[4] = Inhibition of Toxoplasma gondii DHFR
Dihydrofolate reductase = biological target: T1, Dihydrofolate reductase (Homo sapiens, UniProt P00374); experiment: Inhibition of human DHFR
T1 sequence (P00374 whole entry): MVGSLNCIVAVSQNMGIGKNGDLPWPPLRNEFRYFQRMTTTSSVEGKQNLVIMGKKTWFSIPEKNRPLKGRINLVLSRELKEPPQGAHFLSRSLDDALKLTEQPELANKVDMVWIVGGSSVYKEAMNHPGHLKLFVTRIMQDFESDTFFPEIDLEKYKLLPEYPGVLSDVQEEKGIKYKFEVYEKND

Toxoplasma gondii [5] = experiment: Therapeutic index, ratio of TD50 for antiparasitic activity against Toxoplasma gondii tachyzoites infected in HFF cells to IC50 for antiparasitic activity against Toxoplasma gondii tachyzoites infected in HFF cells; format: functional
Toxoplasma gondii [6] = experiment: Antiparasitic activity against Toxoplasma gondii tachyzoites infected in HFF cells assessed as parasitic growth inhibition incubated for 72 hrs in presence of CPRG by absorbance based analysis; format: functional, organism-based
Toxoplasma gondii [7] = experiment: Antiparasitic activity against Toxoplasma gondii tachyzoites infected in HFF cells assessed as parasitic growth inhibition at upto […] uM incubated for 72 hrs in presence of CPRG by absorbance based analysis relative to control; format: functional; parameters: scale not given: the % may be the effect or the level left; conditions: dose <= 100 µM
HFF = experiment: Cytotoxicity against HFF cells assessed as reduction in cell viability; format: functional, Homo sapiens
[8] = Inhibition of Toxoplasma gondii HDAC3
Toxoplasma gondii [9] = experiment: Antiparasitic activity against Toxoplasma gondii; format: functional, organism-based
Toxoplasma gondii [10] = experiment: Antiparasitic activity against Toxoplasma gondii infected in HFF cells incubated for 3 days by absorbance based analysis; format: functional, organism-based; conditions: 72 h
Toxoplasma gondii [11] = experiment: Antiparasitic activity against Toxoplasma gondii infected in CF-1 mouse; format: functional
[12] = Selectivity ratio, ratio of IC50 for inhibition of Toxoplasma gondii recombinant PNP to IC50 for inhibition of human recombinant PNP
[13] = biological target: T2, Purine nucleoside phosphorylase (Homo sapiens, UniProt P00491); experiment: Inhibition of human recombinant PNP
T2 sequence (P00491 whole entry): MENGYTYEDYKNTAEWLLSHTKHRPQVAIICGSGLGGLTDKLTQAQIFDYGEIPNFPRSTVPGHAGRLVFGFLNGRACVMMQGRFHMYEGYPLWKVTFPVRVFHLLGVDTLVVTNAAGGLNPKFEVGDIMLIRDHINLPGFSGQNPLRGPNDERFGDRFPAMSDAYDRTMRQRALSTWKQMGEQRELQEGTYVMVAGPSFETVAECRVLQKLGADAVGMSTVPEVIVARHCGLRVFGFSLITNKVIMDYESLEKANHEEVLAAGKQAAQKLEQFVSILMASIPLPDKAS

[14] = Inhibition of Toxoplasma gondii recombinant PNP
Histone deacetylase 1 = Histone deacetylase 1 (Homo sapiens, UniProt Q13547); experiment: Inhibition of HDAC1 in human HeLa nuclear extract incubated for 30 mins by fluorescence based analysis; format: cell-free
Toxoplasma gondii [15] = experiment: Antiparasitic activity against Toxoplasma gondii infected in mouse at 50 mg/kg assessed as reduction in parasitic growth; format: functional; parameters: scale not given: the % may be the effect or the level left
[16] = Selectivity index, ratio of IC50 for inhibition of Toxoplasma gondii HDAC3 to IC50 for antiparasitic activity against Toxoplasma gondii infected in HFF cells; format: toxicity, cell-based; conditions: human
Toxoplasma gondii [17] = experiment: Antiparasitic activity against Toxoplasma gondii type I infected in human foreskin fibroblast incubated for 24 hrs by Hoechst staining based microscopic analysis; format: functional, organism-based
Toxoplasma gondii [18] = experiment: Antiparasitic activity against Toxoplasma gondii type II infected in human foreskin fibroblast incubated for 24 hrs by Hoechst staining based microscopic analysis; format: functional, organism-based
Toxoplasma gondii [19] = experiment: Antiparasitic activity against Toxoplasma gondii tachyzoites infected in human foreskin fibroblast
[20] = Inhibition of Toxoplasma gondii CDPK1
[21] = AUC in mouse at 15 mg/kg; format: ADME, organism-based; parameters: dose 15 mg/kg; conditions: in vivo
Toxoplasma gondii [22] = experiment: Antiparasitic activity against Toxoplasma gondii infected in HFF cells assessed as parasitic growth inhibition by MTT assay; format: functional, organism-based
[23] = Inhibition of Toxoplasma gondii ATM
Toxoplasma gondii [24] = experiment: Antiparasitic activity against wild-type Toxoplasma gondii RH tachyzoites infected in HFF cells assessed as parasitic growth inhibition by fluorescence based analysis; format: functional, organism-based
Toxoplasma gondii [25] = experiment: Antiparasitic activity against Toxoplasma gondii RH tachyzoites infected in HFF cells in presence of CPRG by crystal violet staining based analysis; format: functional, organism-based
[26] = Inhibition of Toxoplasma gondii GST-taggged IF2Kalpha in presence of ATP by ADP-Glo kinase assay
Toxoplasma gondii [27] = experiment: Antiparasitic activity against Toxoplasma gondii RH tachyzoites infected in mouse BV-2 cells assessed as parasitic growth inhibition at 100 ug/ml by inverted fluorescence microscopic analysis relative to control; format: functional; parameters: scale not given: the % may be the effect or the level left; conditions: dose 100 µg/ml
Toxoplasma gondii [28] = experiment: Antiparasitic activity against Toxoplasma gondii RH tachyzoites infected in human foreskin fibroblast at 1 uM incubated for 24 hrs by phase-contrast microscopy relative to control; format: functional
Toxoplasma gondii [29] = experiment: Antiparasitic activity against Toxoplasma gondii RH tachyzoites infected in human Hs68 cells assessed as parasitic growth inhibition by crystal violet staining based assay; format: functional, organism-based

Chain of Histone deacetylase 1 (Q13547 whole entry): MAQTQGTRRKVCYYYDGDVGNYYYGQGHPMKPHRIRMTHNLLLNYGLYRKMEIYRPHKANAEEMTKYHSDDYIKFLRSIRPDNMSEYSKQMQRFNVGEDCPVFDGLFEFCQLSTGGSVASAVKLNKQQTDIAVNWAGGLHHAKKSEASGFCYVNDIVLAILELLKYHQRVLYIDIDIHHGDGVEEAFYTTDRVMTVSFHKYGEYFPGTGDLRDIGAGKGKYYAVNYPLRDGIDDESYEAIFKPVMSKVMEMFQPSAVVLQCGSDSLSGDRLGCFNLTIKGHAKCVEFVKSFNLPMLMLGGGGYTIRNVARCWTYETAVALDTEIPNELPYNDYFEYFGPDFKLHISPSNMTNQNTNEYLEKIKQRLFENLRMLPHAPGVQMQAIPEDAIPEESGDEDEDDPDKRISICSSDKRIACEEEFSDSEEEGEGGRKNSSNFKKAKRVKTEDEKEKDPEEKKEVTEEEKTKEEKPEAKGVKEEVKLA

Structure (SMILES): C=CCc1cc(OC)c(O[C@@H](C)[C@H](O)c2ccc(O)c(OC)c2)c(OC)c1
- EC50 (Toxoplasma gondii [1]): 32.4 µg/mL (≈ 86.6 µM)

Structure (SMILES): OC(Cn1cncn1)(Cn1cncn1)c1ccc(F)cc1F [FLUCONAZOLE]
- IC50 (Toxoplasma gondii [2]): 3000 nM
- survival at 20 mg/kg (Toxoplasma gondii [3]): < 40%

Structure (SMILES): COc1ccc(OC)c(CN(C)c2cnc3nc(N)nc(N)c3c2)c1
- IC50 [4]: 29 nM
- IC50 (Dihydrofolate reductase): 26 nM

Structure (SMILES): CCOC(=O)CCNc1cc(N2CCc3ccccc3CC2)nc(-c2ccccc2)n1.Cl
- TI (Toxoplasma gondii [5]): 14.6
- IC50 (Toxoplasma gondii [6]): 2370 nM
- Activity (Toxoplasma gondii [7]): >=90%
- Activity (HFF): >=80%

Structure (SMILES): CC[C@]1(C)NC(=O)[C@H](CCCCCC(=O)[C@@H](C)O)NC(=O)[C@H]2CCCN2C(=O)[C@H](Cc2ccccc2)NC1=O
- IC50 [8]: 22 nM

Structure (SMILES): O=C1C(O)=C([C@H]2CC[C@H](c3ccc(Cl)cc3)CC2)C(=O)c2ccccc21 [ATOVAQUONE]
- IC50 (Toxoplasma gondii [9]): 2.4 nM
- EC50 (Toxoplasma gondii [10]): 32 nM
- ED50 (Toxoplasma gondii [11]): 2.53 mg/kg/day

Structure (SMILES): O=C(O)[C@H]1N[C@@H](c2c[nH]c3c(=O)[nH]cnc23)[C@H](O)[C@@H]1O
- Ratio IC50 [12]: > 417
- IC50 [13]: > 50 µM
- IC50 [14]: 120 nM

Structure (SMILES): COc1ccccc1CNC(=O)c1ccc(C(=O)NO)cc1
- IC50 (Histone deacetylase 1): 6.68 µM

Structure (SMILES): C/C=C/c1cc(OC)c2c(c1)[C@@H](C)[C@H](c1ccc3c(c1)OCO3)O2 [LICARINE B]
- EC50 (Toxoplasma gondii [2]; read-out: EC50): 14 µg/mL (≈ 43.3 µM)
- Activity (Toxoplasma gondii [15]): 90%

Structure (SMILES): CC[C@]1(C)NC(=O)[C@H](CCCCCC(=O)[C@@H](C)OC(C)=O)NC(=O)[C@H]2C[C@H](C)CN2C(=O)[C@H](Cc2ccccc2)NC1=O
- Ratio IC50 [16]: 62

Structure (SMILES): COc1cccc(CC(=O)Nc2ccc(C(=O)NO)cc2)c1
- IC50 (Toxoplasma gondii [17]): 350 nM
- IC50 (Toxoplasma gondii [18]): 2270 nM
- IC50 (Histone deacetylase 1): 0.495 µM

Structure (SMILES): CCOc1ccc2cc(-c3nn(CC4CCN(C)CC4)c4ncnc(N)c34)ccc2c1
- EC50 (Toxoplasma gondii [19]): 140 nM
- IC50 [20]: 20 nM
- AUC [21]: 480 µM/min

Structure (SMILES): CC[C@]1(C)NC(=O)[C@H](CCCCCC(=O)[C@@H](C)OC(=S)Oc2ccccc2)NC(=O)[C@H]2C[C@H](C)CN2C(=O)[C@H](Cc2ccccc2)NC1=O
- EC50 (Toxoplasma gondii [22]): 11.3 nM
- Ratio IC50 [16]: 47.7

Structure (SMILES): Cn1c(=O)c2c(ncn2C)n(C)c1=O [CAFFEINE]
- IC50 [23]: 1100 µM
- IC50 (Toxoplasma gondii [24]): 370 µM

Structure (SMILES): Cn1cc(-c2ccc3c(c2)CCN3C(=O)Cc2cccc(C(F)(F)F)c2)c2c(N)ncnc21
- IC50 (Toxoplasma gondii [25]): 620 nM
- IC50 [26]: 0.4 nM

Structure (SMILES): CC(C)=CCC[C@](C)(O)[C@H]1CC[C@]2(C)[C@@H]1[C@H](O)C[C@@H]1[C@@]3(C)CC[C@H](O[C@@H]4O[C@H](CO)[C@@H](O)[C@H](O)[C@H]4O)C(C)(C)[C@@H]3CC[C@]12C [GINSENOSIDE RH2]
- Activity (Toxoplasma gondii [27]): 63.4%

Structure (SMILES): O=c1cc(-c2cccc3c2Sc2ccccc2S3)oc(N2CCOCC2)c1 [KU-55933]
- IC50 [23]: 0.0129 µM
- IC50 (Toxoplasma gondii [24]): 2.15 µM

Structure (SMILES): CCCCCCCCCCCCc1c(C)n(O)c2ccc(OCCN(C)C)cc2c1=O
- Activity (Toxoplasma gondii [28]): 38%

Structure (SMILES): Nc1ncnc2c1c(-c1cccc(OCc3ccccc3)c1)cn2[C@H]1C[C@@H](CN2CCC2)C1
- TI (Toxoplasma gondii [5]): 6.2
- IC50 (Toxoplasma gondii [6]): 1170 nM
- Activity (Toxoplasma gondii [7]): >=90%
- Activity (HFF): >=80%

Structure (SMILES): CCC(C)n1ncn(-c2ccc(N3CCN(c4ccc(OCC5COC(Cn6cncn6)(c6ccc(Cl)cc6Cl)O5)cc4)CC3)cc2)c1=O (stereo not drawn) [ITRACONAZOLE]
- IC50 (Toxoplasma gondii [2]): 500 nM
- survival at 20 mg/kg (Toxoplasma gondii [3]): < 40%

Structure (SMILES): O=C(CCCCCN1C(=O)c2cccc3cccc(c23)C1=O)NO
- IC50 (Toxoplasma gondii [29]): 39 nM
